pIC50: −log10 of the molar value.
Target: p38α (Homo sapiens, UniProt Q16539)
Assay: p38α/MK2 cascade assay
Assay type: biochemical
Conditions: Table 1; inhibitors preincubated with p38α for 40 minutes; phosphorylation of Hsp27 peptide by MK-2, Caliper LabChip 3000; read-out: p38a/MK2 Cascade 40 min Pre-Incuabtion (% Inhibition): IC50
Protocol: The ability of compounds to inhibit activated p38α was determined in a p38α/MK-2 cascade assay format. The kinase activity of p38α is determined by its ability to phosphorylate/activate nonactive MK2 (54-400). Activation of MK-2 by p38α is measured by following the phosphorylation of a MK-2 specific peptide, Hsp27 peptide (FITC-KKKALSRQLSVAA). The phosphorylation of the Hsp27 peptide was quantified using the Caliper LabChip 3000. The kinase reactions were carried out in 20 mM HEPES pH 7.5, 10 mM MgCl2, 0.0005% Tween-20, 0.01% BSA, 1 mM DTT, and 2% DMSO. The inhibitors were varied between 1000-0.05 nM, while the Hsp27 peptide substrate, MgATP, and nonactive MK-2 (54-400) were held constant at 0.5 µM, 5 µM, and 1 nM, respectively. Inhibitors were preincubated with p38α for 40 minutes prior to initiating the reaction with peptide, MgATP, and MK-2. The kinase reactions were quenched after 60 minutes by the addition of stop buffer (180 mM HEPES, 30 mM EDTA, and 0.2% Coating Reagent-3).
The above protocol assay was used to determine the IC50 values for some of the compounds in the above Examples.
IC50 values were determined for the compounds listed in Table 2, using the same p38α/MK2 cascade assay used to determine the IC50 values for the compounds in Table 1. The compounds of Table 2 were prepared using methods similar to those listed in the Examples for compounds of Table 1.

Chain of p38α (Q16539 whole entry): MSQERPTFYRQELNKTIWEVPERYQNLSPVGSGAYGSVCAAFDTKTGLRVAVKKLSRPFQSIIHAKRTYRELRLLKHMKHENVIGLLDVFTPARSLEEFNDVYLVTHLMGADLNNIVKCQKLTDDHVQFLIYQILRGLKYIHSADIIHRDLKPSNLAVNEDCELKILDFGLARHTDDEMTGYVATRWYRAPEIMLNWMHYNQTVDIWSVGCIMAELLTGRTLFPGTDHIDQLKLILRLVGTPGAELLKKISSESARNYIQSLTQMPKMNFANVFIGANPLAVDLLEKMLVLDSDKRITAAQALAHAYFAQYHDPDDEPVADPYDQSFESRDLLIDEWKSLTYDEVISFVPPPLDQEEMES

SMILES	pIC50
CCc1c(OCc2ccccc2CNC(=O)Nc2cc(C(C)(C)C)nn2-c2cccc(F)c2)ncn(Cc2ccc(OC)cc2)c1=O [Example 116, 1-[3-tert-butyl-1-(3-fluorophenyl)-1H-pyrazol-5-yl]-3-[2-({[5-ethyl-1-(4-methoxybenzyl)-6-oxo-1,6-dihydropyrimidin-4-yl]oxy}methyl)benzyl]urea]	8.00
COc1cccc(-n2nc(C(C)(C)C)cc2NC(=O)NCc2ccccc2COc2cc(C)n(Cc3ccccc3)c(=O)c2C)c1 [Example 128-B, 1-(2-{[(1-benzyl-3,6-dimethyl-2-oxo-1,2-dihydropyridin-4-yl)oxy]methyl}benzyl)-3-[3-tert-butyl-1-(3-methoxyphenyl)-1H-pyrazol-5-yl]urea]	7.90
Cc1ccc(-n2nc(C(C)(C)C)cc2NC(=O)NCc2ccccc2COc2cc(C)n(Cc3ccccc3)c(=O)c2C)cc1 [Example 128-C, 1-(2-{[(1-benzyl-3,6-dimethyl-2-oxo-1,2-dihydropyridin-4-yl)oxy]methyl}benzyl)-3-[3-tert-butyl-1-(4-methylphenyl)-1H-pyrazol-5-yl]urea]	7.92
COC(=O)c1ccc(C)c(-n2c(C)cc(OCc3ccc(F)cc3CNC(=O)Nc3cc(C(C)(C)C)nn3-c3ccc(C)cc3)c(Cl)c2=O)c1 [Example 181, Methyl 3-{4-[(2-{[({[3-tert-butyl-1-(4-methylphenyl)-1H-pyrazol-5-yl]amino}carbonyl)amino]methyl}-4-fluorobenzyl)oxy]-3-chloro-6-methyl-2-oxopyridin-1(2H)-yl}-4-methylbenzoate]	8.48
COC(=O)c1ccc(C)c(-n2c(C)cc(OCc3ccc(F)cc3CNC(=O)Nc3cc(C(C)(C)C)nn3-c3cccc(Cl)c3)c(Cl)c2=O)c1 [Example 182, Methyl 3-{4-[(2-{[({[3-tert-butyl-1-(3-chlorophenyl)-1H-pyrazol-5-yl]amino}carbonyl)amino]methyl}-4-fluorobenzyl)oxy]-3-chloro-6-methyl-2-oxopyridin-1(2H)-yl}-4-methylbenzoate]	8.40
COC(=O)c1ccc(C)c(-n2c(C)cc(OCc3ccc(F)cc3CNC(=O)Nc3cc(C(C)(C)C)nn3-c3cccc(OC)c3)c(Cl)c2=O)c1 [Example 183, Methyl 3-{4-[(2-{[({[3-tert-butyl-1-(3-methoxyphenyl)-1H-pyrazol-5-yl]amino}carbonyl)amino]methyl}-4-fluorobenzyl)oxy]-3-chloro-6-methyl-2-oxopyridin-1(2H)-yl}-4-methylbenzoate]	8.65
COC(=O)c1ccc(C)c(-n2c(C)cc(OCc3ccc(F)cc3CNC(=O)Nc3cc(C(C)(C)C)nn3-c3ccc(C)cc3)c(Br)c2=O)c1 [Example 185, methyl 3-{3-bromo-4-[(2-{[({[3-tert-butyl-1-(4-methylphenyl)-1H-pyrazol-5-yl]amino}carbonyl)amino]methyl}-4-fluorobenzyl)oxy]-6-methyl-2-oxopyridin-1(2H)-yl}-4-methylbenzoate]	8.44
Cc1ccc(-n2nc(C(C)(C)C)cc2NC(=O)NCc2cc(F)ccc2COc2cc(C)n(-c3cc(C(=O)O)ccc3C)c(=O)c2Cl)cc1 [Example 186, 3-{4-[(2-{[({[3-tert-butyl-1-(4-methylphenyl)-1H-pyrazol-5-yl]amino}carbonyl)amino]methyl}-4-fluorobenzyl)oxy]-3-chloro-6-methyl-2-oxopyridin-1(2H)-yl}-4-methylbenzoic acid]	8.34
COc1cccc(-n2nc(C(C)(C)C)cc2NC(=O)NCc2cc(F)ccc2COc2cc(C)n(-c3cc(C(=O)O)ccc3C)c(=O)c2Cl)c1 [Example 189, 3-{4-[(2-{[({[3-tert-butyl-1-(3-methoxyphenyl)-1H-pyrazol-5-yl]amino}carbonyl)amino]methyl}-4-fluorobenzyl)oxy]-3-chloro-6-methyl-2-oxopyridin-1(2H)-yl}-4-methylbenzoic acid]	8.59
Cc1ccc(-n2nc(C(C)(C)C)cc2NC(=O)NCc2cc(F)ccc2COc2cc(C)n(-c3cc(C(=O)NCCO)ccc3C)c(=O)c2Cl)cc1 [Example 190, 3-{4-[(2-{[({[3-tert-butyl-1-(4-methylphenyl)-1H-pyrazol-5-yl]amino}carbonyl)amino]methyl}-4-fluorobenzyl)oxy]-3-chloro-6-methyl-2-oxopyridin-1(2H)-yl}-N-(2-hydroxyethyl)-4-methylbenzamide]	8.63
Cc1ccc(-n2nc(C(C)(C)C)cc2NC(=O)NCc2cc(F)ccc2COc2cc(C)n(-c3cc(C(=O)NCCO)ccc3C)c(=O)c2Br)cc1 [Example 193, 3-{3-bromo-4-[(2-{[({[3-tert-butyl-1-(4-methylphenyl)-1H-pyrazol-5-yl]amino}carbonyl)amino]methyl}-4-fluorobenzyl)oxy]-6-methyl-2-oxopyridin-1(2H)-yl}-N-(2-hydroxyethyl)-4-methylbenzamide]	8.66

Other lines, results leading:

pIC50	SMILES
7.80	COc1ccc(Cn2c(C)cc(OCc3ccccc3CNC(=O)Nc3cc(C(C)(C)C)nn3-c3cccc(F)c3)c(Br)c2=O)c(OC)c1 [Example 117, 1-[2-({[3-bromo-1-(2,4-dimethoxybenzyl)-6-methyl-2-oxo-1,2-dihydropyridin-4-yl]oxy}methyl)benzyl]-3-[3-tert-butyl-1-(3-fluorophenyl)-1H-pyrazol-5-yl]urea]
7.92	COc1cccc(-n2nc(C(C)(C)C)cc2NC(=O)NCc2ccccc2COc2cc(C)n(Cc3ccc(OC)cc3OC)c(=O)c2Br)c1 [Example 119, 1-[2-({[3-bromo-1-(2,4-dimethoxybenzyl)-6-methyl-2-oxo-1,2-dihydropyridin-4-yl]oxy}methyl)benzyl]-3-[3-tert-butyl-1-(3-methoxyphenyl)-1H-pyrazol-5-yl]urea]
7.81	COc1ccc(Cn2c(C)cc(OCc3ccccc3CNC(=O)Nc3cc(C(C)(C)C)nn3-c3ccccc3)c(Br)c2=O)c(OC)c1 [Example 120, 1-[2-({[3-bromo-1-(2,4-dimethoxybenzyl)-6-methyl-2-oxo-1,2-dihydropyridin-4-yl]oxy}methyl)benzyl]-3-(3-tert-butyl-1-phenyl-1H-pyrazol-5-yl)urea]
7.96	COc1ccc(Cn2c(C)cc(OCc3ccccc3CNC(=O)Nc3cc(C(C)(C)C)nn3-c3ccc(F)cc3F)c(Br)c2=O)c(OC)c1 [Example 121, 1-[2-({[3-bromo-1-(2,4-dimethoxybenzyl)-6-methyl-2-oxo-1,2-dihydropyridin-4-yl]oxy}methyl)benzyl]-3-[3-tert-butyl-1-(2,4-difluorophenyl)-1H-pyrazol-5-yl]urea]
7.81	COc1ccc(Cn2c(C)cc(OCc3ccccc3CNC(=O)Nc3cc(C(C)(C)C)nn3-c3ccc(C)cc3)c(Br)c2=O)c(OC)c1 [Example 122, 1-[2-({[3-bromo-1-(2,4-dimethoxybenzyl)-6-methyl-2-oxo-1,2-dihydropyridin-4-yl]oxy}methyl)benzyl]-3-[3-tert-butyl-1-(4-methylphenyl)-1H-pyrazol-5-yl]urea]
7.95	COc1cccc(-n2nc(C(C)(C)C)cc2NC(=O)NCc2ccccc2COc2cc(C)n(Cc3ccc(OC)cc3OC)c(=O)c2C)c1 [Example 123, 1-[3-tert-butyl-1-(3-methoxyphenyl)-1H-pyrazol-5-yl]-3-[2-({[1-(2,4-dimethoxybenzyl)-3,6-dimethyl-2-oxo-1,2-dihydropyridin-4-yl]oxy}methyl)benzyl]urea]
